Results as given in patent US9446017B2, “Compositions and methods for treating herpes simplex virus” (Augusta University Research Institute, Inc., priority 2005, dated 2016).
“And” between values parts separate entries of the source, which are not always exact repeats. Identical values can stand only once. “Also recorded” adds a separate entry of the source.

Columns and labels:
HSV1 [1] = assay: Viral titer study using plaque assay, HSV virions pre-treated with polyphenol, Vero cells; format: cell-based
Protocol: Vero cells were plated on 6 well plates and allowed to reach confluence. HSV virions were treated for 1 hour with the respective concentration of polyphenols (12.5, 25, 50, 75, 100 μM) prior to cell infection. Cells were then infected with HSV and allowed to adsorb for 1 hour. Viruses that had not been absorbed were then aspirated. Plates were then overlaid with a nutrient medium-containing agar. Plaques were visualized by staining cells with crystal violet, observed, and counted within 50 hours.
Viral titer was determined to study the effect of 50 μM of EGCG and EGCG-ester on the viral particle production by using plaque assay. Serial dilutions of viral lysates were performed from 10^−1 to 10^−7 and cells were then infected respectively with the dilutions.
In order to obtain the minimum inhibitory concentration of EGCG-ester on HSV1, different concentrations (12.5, 25, 50, 75 μM) of EGCG-ester were used at lower dilution of viral lysate (10^−1 and 10^−2).

HSV1 [2] = assay: Fluorescence microscopy of GFP-HSV1 lytic cycle in Vero cells; format: cell-based; conditions: for virus replication and formation of virions: virus treated with 100 μM
Protocol: Cells were grown on glass cover slips and allowed to reach confluence. They were then infected with either control HSV or previously treated HSV for 1 hour. Time course studies were performed in which the virus was allowed to adsorb for 1 hour and then aspirated. Cells were washed with PBS and media was added to each well. After a period of 8, 10, and 12 hours, cells were then fixed with a 1:1 acetone and methanol solution and visualized under a Zeiss Axiovision fluorescence microscope using differential interference contrast settings.
HSV1/Vero cells were used as positive controls and Vero cells were used as negative control. 75 μM EGCG ester-HSV1/Vero cells were also monitored and compared to controls. GFP-HSV1, DAPI stained nucleus and lysosome stain were used to identify cytopathic effects on Vero cells. The course study was performed in triplicates.

Vero cells [3] = assay: Cell proliferation assay (MTS tetrazolium, absorbance 490 nm); format: cell-based, green monkey; conditions: for absorbance at 490 nm (single reading): 1 hour, read 24 hours later; for inhibition of cell proliferation: up to 75 μM, compared to controls
Protocol: A cell proliferation kit (G5421, Promega Corp.) was used. This is a colorimetric method for determining cell proliferation. This kit contains a tetrazolium compound and an electron-coupling reagent (phenazine methosulfate). Only live cells will be able to bioreduce the tetrazolium compound into soluble formazan. Thus, the amount of formazan formed and measured at 490 nm absorbance is directly proportional to the number of live cells. Cells were plated into 96 well plates and after 24 hrs they were treated with different concentrations (12.5, 25, 50, 75, 100 μM) of polyphenols and allowed to adsorb for 1 hour. Polyphenols were then aspirated and 100 μL of fresh DMEM was added back to each well. 24 hours later, 20 μL of the MTS reagent was added to every 100 μL of cells in media. The plates were incubated at 37° C. and 5% CO2 for 4 hours, and then the absorbance was read using a plate reader. […] In this study, cell proliferation was examined under the same conditions as described before. Each experiment was assayed in triplicates, and absorbance of this colorimetric assay was recorded at 490 nm using a 96 well ELISA plate reader.

Vero cells [4] = assay: Cytotoxicity assay, morphological and proliferation changes by microscope; format: cell-based, green monkey; conditions: for change of cell morphology: 12.5 to 75 μM; for maximum nontoxic concentration: Vero cells; for effect on the cells: higher concentration
Protocol: Cells were studied for morphological and proliferation changes 48 hrs later using an ACCU-Scope 3002 microscope with a camera attached. […] Cells were studied for morphological and proliferation changes 24 hrs later using an ACCU-Scope 3002 microscope with a camera attached. In order to determine the proper concentrations of EGCG and EGCG-ester to be used for treating HSV1, the effect of polyphenols on the cells were studied. […] In this experiment, the polyphenols were added at the same time as the cells were plated and were not removed subsequently. The effect of different concentrations of EGCG-ester on Vero cells was also observed at 24 hrs. […] EGCG-ester was then aspired, and cells were observed 24 hours later.

[5] = 75 μM, 8 to 12 hours post infection

| SMILES | virus replication and formation of virions (HSV1 [2]) | absorbance at 490 nm, Mean (Vero cells [3]; 12.5 μM) | absorbance at 490 nm (single reading) (Vero cells [3]; 12.5 μM) | absorbance at 490 nm, Mean (Vero cells [3]; 25 μM) | absorbance at 490 nm (single reading) (Vero cells [3]; 25 μM) | absorbance at 490 nm, Mean (Vero cells [3]; 50 μM) | absorbance at 490 nm (single reading) (Vero cells [3]; 50 μM) | absorbance at 490 nm, Mean (Vero cells [3]; 75 μM) | absorbance at 490 nm (single reading) (Vero cells [3]; 75 μM) | absorbance at 490 nm, Mean (Vero cells [3]; 100 μM) | absorbance at 490 nm (single reading) (Vero cells [3]; 100 μM) | inhibition of cell proliferation (Vero cells [3]) | change of cell morphology (Vero cells [4]) | maximum nontoxic concentration (Vero cells [4]) [µM] | effect on the cells (Vero cells [4]) | also measured |
| --- | --- | --- | --- | --- | --- | --- | --- | --- | --- | --- | --- | --- | --- | --- | --- | --- |
| O=C(O[C@@H]1Cc2c(O)cc(O)cc2O[C@@H]1c1cc(O)c(O)c(O)c1)c1cc(O)c(O)c(O)c1 [EGCG, (−)-epigallocatechin-3-gallate, reference compound] | not able to replicate and form more virions | 0.607 | 0.615 and 0.606 and 0.601 | 0.621 | 0.628 and 0.620 and 0.616 | 0.603 | 0.632 and 0.587 and 0.589 | 0.647 | 0.645 and 0.652 | 0.698 | 0.688 and 0.677 and 0.730 | not inhibiting cell proliferation to a great extent | do not induce a change cell morphology | 75 | not significantly affected | fold decrease in titer / plaque formation vs HSV1/Vero (HSV1 [1]; 50 μM): 10 fold; viral titer (HSV1 [1]; HSV1 treated with 50 μM polyphenol before infection of Vero cells): 1×10^5 PFU/ml; morphological changes (Vero cells [4]; 12.5-100 μM, added when cells were plated, not removed, observed at 48 hrs): no morphological changes |
| CCCCCCCCCCCCCCCC(=O)Oc1c(O)cc([C@H]2Oc3cc(O)cc(O)c3C[C@H]2OC(=O)c2cc(O)c(O)c(O)c2)cc1O [EGCG-ester] | not able to replicate and form more virions | 0.627 | 0.642 and 0.647 and 0.574 | 0.647 | 0.668 and 0.651 and 0.621 | 0.676 | 0.663 and 0.698 and 0.667 | 0.653 | 0.582 and 0.689 and 0.687 | 0.717 | 0.691 and 0.741 and 0.719 | not inhibiting cell proliferation to a great extent | do not induce a change cell morphology | 75 | not significantly affected | reduction of HSV1 ability to form plaques (HSV1 [1]; 50 μM EGCG-ester and above, viral lysate dilution 10^−1 and 10^−2): > 99%; plaque (PFU) formation (HSV1 [1]; 50 μM and above): no plaques observed; also recorded: completely inhibits PFU formation; plaque formation (HSV1 [1]; 50 μM, viral lysate dilutions 10^−1 to 10^−7): no plaque formation; inhibition of HSV1 infections (HSV1 [2]; [5]): able to inhibit HSV1 infections; visible viral particles in infected cells (HSV1 [2]; [5]): almost no virions; GFP expression in green fluorescence images (HSV1 [2]; 75 μM, 8 hrs post infection): almost none; cell morphology (Vero cells [4]; 100 μM, added when cells were plated, not removed, 48 hrs): affected to a certain extent; cell morphology (Vero cells [4]; 12.5-100 μM for 1 hour on cells plated 24 hours, observed 24 hours later): not greatly affected |
